Source: patent US5288758A, “New urea derivatives, their preparation and their application in therapy” (priority 1991, dated 1994)

Target: acetylcholinesterase (Homo sapiens, UniProt P22303)
Experiment: biochemical
Conditions: method of Ellman et al., Biochem. Pharmacol. 7, 88-95 (1961); read-out: Inhibition of acetylcholinesterase activity, IC50

Chain of acetylcholinesterase (P22303 32-614): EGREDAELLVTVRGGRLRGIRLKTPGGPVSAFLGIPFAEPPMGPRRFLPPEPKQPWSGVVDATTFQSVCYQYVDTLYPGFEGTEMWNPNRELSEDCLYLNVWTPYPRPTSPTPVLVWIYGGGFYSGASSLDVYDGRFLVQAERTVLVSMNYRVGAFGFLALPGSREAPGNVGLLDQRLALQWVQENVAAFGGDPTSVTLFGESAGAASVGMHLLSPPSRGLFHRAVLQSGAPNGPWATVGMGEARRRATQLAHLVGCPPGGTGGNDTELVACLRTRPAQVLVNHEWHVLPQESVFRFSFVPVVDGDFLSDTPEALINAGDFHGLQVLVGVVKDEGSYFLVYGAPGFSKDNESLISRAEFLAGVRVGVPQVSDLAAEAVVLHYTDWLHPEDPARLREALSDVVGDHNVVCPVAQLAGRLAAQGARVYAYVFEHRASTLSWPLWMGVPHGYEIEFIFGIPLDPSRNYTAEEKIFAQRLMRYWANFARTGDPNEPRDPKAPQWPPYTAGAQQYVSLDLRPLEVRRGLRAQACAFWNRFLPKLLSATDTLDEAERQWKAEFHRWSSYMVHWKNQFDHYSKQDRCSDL

SMILES | IC50 [nM]
CN(CCOCCNC(=S)NC(=O)c1cccc([N+](=O)[O-])c1)Cc1ccccc1 [Compound 13] | 15
CN(CCOCCNC(=S)NC(=O)c1ccc(Cl)c(Cl)c1)Cc1ccccc1 [Compound 14] | 55
CN(CCOCCNC(=S)NC(=O)c1ccc(Cl)cc1)Cc1ccccc1 [Compound 12] | 30
COc1ccc(C(=O)NC(=S)NCCOCCN(C)Cc2ccccc2)cc1 [Compound 11] | 26
CN(CCCCCNC(=S)NC(=O)c1ccccc1)CC1CCCCC1 [Compound 5, 1-Benzoyl-3-[5-(N-cyclohexylmethyl-N-methylamino)pentyl]thiourea] | 50
CN(CCOCCNC(=S)NC(=O)c1ccc2ccccc2c1)Cc1ccccc1 [Compound 16] | 100
